Reference: patent US10183943B2, “Heterocyclic compounds and their use in preventing or treating bacterial infections” (MUTABILIS, priority 2015, dated 2019)

How the values were obtained:
TEM-1 = biological target: T1, TEM-1 (Escherichia coli, UniProt P62593); experiment: β-lactamase inhibitory activity, determination of IC50 (nitrocefin hydrolysis); format: biochemical; conditions: class (A); nitrocefin 200 μM, 30 min pre-incubation; read-out: IC50 β-lactamase TEM-1
T1 construct: made in house; host or cells: E. coli
T1 sequence (P62593 24-286 limits assumed): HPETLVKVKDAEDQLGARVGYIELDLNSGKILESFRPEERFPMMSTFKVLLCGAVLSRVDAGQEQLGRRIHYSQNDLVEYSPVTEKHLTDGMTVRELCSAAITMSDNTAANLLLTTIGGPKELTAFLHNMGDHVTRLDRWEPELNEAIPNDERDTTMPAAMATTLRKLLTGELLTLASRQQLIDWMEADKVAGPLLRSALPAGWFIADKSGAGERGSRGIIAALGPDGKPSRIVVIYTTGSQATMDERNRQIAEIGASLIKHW

SHV-1 = biological target: T2, SHV-1 (Klebsiella pneumoniae, UniProt P0AD64); experiment: as above; format: biochemical; conditions: class (A); nitrocefin 200 μM, 30 min pre-incubation; read-out: IC50 β-lactamase SHV-1
T2 construct: made in house; host or cells: E. coli
T2 sequence (P0AD64 22-286): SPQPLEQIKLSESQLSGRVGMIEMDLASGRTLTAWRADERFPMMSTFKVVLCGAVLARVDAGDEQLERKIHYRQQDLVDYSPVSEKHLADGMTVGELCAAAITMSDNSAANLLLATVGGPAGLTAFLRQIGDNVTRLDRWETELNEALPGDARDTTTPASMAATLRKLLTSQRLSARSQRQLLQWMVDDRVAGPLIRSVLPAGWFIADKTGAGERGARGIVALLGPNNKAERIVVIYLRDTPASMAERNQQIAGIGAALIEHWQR

CTX-M-15 = biological target: T3, CTX-M-15 (Escherichia coli, UniProt Q9EXV5); experiment: as above; format: biochemical; conditions: class (A); nitrocefin 200 μM, 30 min pre-incubation; read-out: IC50 β-lactamase CTX-M-15
T3 construct: made in house; host or cells: E. coli
T3 sequence (Q9EXV5 entry or part of it): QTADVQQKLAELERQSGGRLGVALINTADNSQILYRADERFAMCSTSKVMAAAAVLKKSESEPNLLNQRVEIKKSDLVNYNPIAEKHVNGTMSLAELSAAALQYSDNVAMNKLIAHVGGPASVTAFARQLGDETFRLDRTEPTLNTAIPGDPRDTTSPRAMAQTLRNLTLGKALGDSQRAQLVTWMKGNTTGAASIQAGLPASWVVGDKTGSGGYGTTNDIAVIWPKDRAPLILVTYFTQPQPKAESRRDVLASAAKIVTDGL

KPC-2 = biological target: T4, KPC-2 (Klebsiella pneumoniae, UniProt Q9F663); experiment: as above; format: biochemical; conditions: class (A); nitrocefin 200 μM, 30 min pre-incubation; read-out: IC50 β-lactamase KPC-2
T4 construct: made in house; host or cells: E. coli
T4 sequence (Q9F663 25-293 limits assumed): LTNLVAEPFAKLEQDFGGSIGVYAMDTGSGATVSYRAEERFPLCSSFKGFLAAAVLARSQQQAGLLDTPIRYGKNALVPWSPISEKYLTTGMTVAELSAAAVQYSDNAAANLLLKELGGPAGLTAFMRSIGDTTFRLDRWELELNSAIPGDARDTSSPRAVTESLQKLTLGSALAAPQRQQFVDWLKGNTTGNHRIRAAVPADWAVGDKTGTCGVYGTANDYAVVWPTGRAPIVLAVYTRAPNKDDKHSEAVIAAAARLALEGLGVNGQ

[1] = biological target: CMY-37 (Citrobacter freundii); experiment: as above; format: biochemical; conditions: class (C); nitrocefin 200 μM, 30 min pre-incubation
Sequence of CMY-37 (Citrobacter freundii) (A0A9R8 21-381): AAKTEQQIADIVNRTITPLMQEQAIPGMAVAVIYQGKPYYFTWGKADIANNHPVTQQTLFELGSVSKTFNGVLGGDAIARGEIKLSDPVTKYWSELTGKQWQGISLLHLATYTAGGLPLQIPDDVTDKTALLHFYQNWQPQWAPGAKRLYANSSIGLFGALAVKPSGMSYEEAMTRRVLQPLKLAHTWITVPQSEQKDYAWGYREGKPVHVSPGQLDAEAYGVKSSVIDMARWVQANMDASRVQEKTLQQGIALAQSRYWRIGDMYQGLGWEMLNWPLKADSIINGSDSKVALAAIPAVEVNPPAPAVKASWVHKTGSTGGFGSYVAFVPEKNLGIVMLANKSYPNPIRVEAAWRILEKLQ

OXA-1 = biological target: T5, OXA-1 (Escherichia coli, UniProt P13661); experiment: as above; format: biochemical; conditions: class (D); nitrocefin 200 μM, 30 min pre-incubation; read-out: IC50 β-lactamase OXA-1
T5 construct: made in house; host or cells: E. coli
T5 sequence (P13661 26-276): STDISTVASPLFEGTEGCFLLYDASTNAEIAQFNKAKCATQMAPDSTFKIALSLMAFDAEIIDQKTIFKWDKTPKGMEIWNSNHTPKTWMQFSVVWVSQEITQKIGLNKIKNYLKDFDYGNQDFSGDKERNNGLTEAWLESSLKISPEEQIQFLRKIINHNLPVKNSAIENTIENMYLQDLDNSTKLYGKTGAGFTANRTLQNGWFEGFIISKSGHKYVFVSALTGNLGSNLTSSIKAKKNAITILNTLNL

OXA-11 = biological target: T6, OXA-11 (Pseudomonas aeruginosa, UniProt Q06778); experiment: as above; format: biochemical; conditions: class (D); nitrocefin 200 μM, 30 min pre-incubation; read-out: IC50 β-lactamase OXA-11
T6 construct: made in house; host or cells: E. coli
T6 sequence (Q06778 21-266): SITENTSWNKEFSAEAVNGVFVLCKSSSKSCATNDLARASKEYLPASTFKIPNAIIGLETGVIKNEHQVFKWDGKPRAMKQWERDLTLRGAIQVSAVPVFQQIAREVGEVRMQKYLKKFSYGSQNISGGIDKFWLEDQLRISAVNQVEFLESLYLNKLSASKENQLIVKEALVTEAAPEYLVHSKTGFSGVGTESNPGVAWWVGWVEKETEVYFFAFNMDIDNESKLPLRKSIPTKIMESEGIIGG

OXA-15 = biological target: T7, OXA-15 (Pseudomonas aeruginosa, UniProt Q51574); experiment: biochemical; conditions: class (D); nitrocefin 200 μM, 30 min pre-incubation; read-out: IC50 β-lactamase OXA-15
T7 construct: made in house; host or cells: E. coli
T7 sequence (Q51574 22-275): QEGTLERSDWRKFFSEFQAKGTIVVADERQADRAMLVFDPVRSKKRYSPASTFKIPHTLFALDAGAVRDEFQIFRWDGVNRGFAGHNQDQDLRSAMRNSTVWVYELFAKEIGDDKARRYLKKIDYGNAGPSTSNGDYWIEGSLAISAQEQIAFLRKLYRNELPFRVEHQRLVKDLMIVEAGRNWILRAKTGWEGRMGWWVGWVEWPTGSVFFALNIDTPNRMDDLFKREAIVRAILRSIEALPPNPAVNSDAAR

OXA-48 = biological target: T8, OXA-48 (Klebsiella pneumoniae, UniProt Q6XEC0); experiment: β-lactamase inhibitory activity, determination of IC50 (nitrocefin hydrolysis); format: biochemical; conditions: class (D); nitrocefin 200 μM, 30 min pre-incubation; read-out: IC50 β-lactamase OXA-48
T8 construct: made in house; host or cells: E. coli
T8 sequence (Q6XEC0 23-265 limits assumed): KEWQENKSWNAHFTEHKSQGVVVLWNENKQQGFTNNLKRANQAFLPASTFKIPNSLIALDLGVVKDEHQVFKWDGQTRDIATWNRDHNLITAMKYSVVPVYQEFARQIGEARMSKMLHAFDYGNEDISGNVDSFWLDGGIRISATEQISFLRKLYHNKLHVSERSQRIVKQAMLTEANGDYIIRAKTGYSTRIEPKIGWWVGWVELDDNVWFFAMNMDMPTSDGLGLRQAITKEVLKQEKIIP

E. cloacae P99 (AmpC) [2] = experiment: MIC of compounds alone, broth microdilution; format: cell-based; conditions: strain P99 (E. cloacae)
Procedure, shortened: (§1)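 CLSI broth microdilution with compounds alone, spotted from DMSO, against log-phase bacteria at 5×10^5 cfu/mL in cation-adjusted Mueller-Hinton broth. Plates incubated 16-20 h at 35 °C in ambient air; MIC was the lowest concentration preventing visible growth.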

[3] = system: E. coli 131119 (TEM-1, OXA-48); experiment: MIC of compounds alone, broth microdilution; format: cell-based; conditions: strain 131119 (E. coli)
Procedure, shortened: as §1

[4] = system: E. coli 190317 (TEM-1, SHV-12, CTX-M-15, OXA-1); experiment: MIC of compounds alone, broth microdilution; format: cell-based; conditions: strain 190317 (E. coli)
Procedure, shortened: as §1

E. coli RGN238 (OXA-1) = experiment: MIC of compounds alone, broth microdilution; format: cell-based; conditions: strain RGN238 (E. coli)
Procedure, shortened: as §1

[5] = system: K. pneumoniae 6299 (TEM-1, SHV-11, OXA-163); experiment: MIC of compounds alone, broth microdilution; format: cell-based; conditions: strain 6299 (K. pneumoniae)
Procedure, shortened: as §1

[6] = system: K. pneumoniae BAA-1898 (TEM-1, SHV-11, SHV-12, KPC-2); experiment: MIC of compounds alone, broth microdilution; format: cell-based; conditions: strain BAA-1898 (K. pneumoniae)
Procedure, shortened: as §1

[7] = system: P. aeruginosa CIP107051 (TEM-24); experiment: MIC of compounds alone, broth microdilution; format: cell-based; conditions: strain CIP107051 (P. aeruginosa)
Procedure, shortened: as §1

E. cloacae P99 (AmpC) [8] = experiment: MIC of ceftazidime (CAZ) in combination with compounds at 4 μg/mL, broth microdilution; format: cell-based; conditions: strain P99; MIC of CAZ with compound fixed at 4 μg/mL
Protocol: (§2) Method 2: MIC of Compounds and Synergy with Ceftazidime Against Bacterial Isolates (Table 2 and 3)
(§3) Compounds of the present invention were assessed against genotyped bacterial strains alone or in combination with the β-lactam ceftazidime (CAZ). In the assays, MICs of said compounds, or of ceftazidime at fixed concentrations of said compounds were determined by the broth microdilution method according to the Clinical Laboratory Standards Institute (CLSI-M7-A7). Briefly, compounds alone according to the invention were prepared in DMSO and spotted (2 μL each) on sterile polystyrene plates (Corning, 3788). Compounds and ceftazidime dilutions were prepared in DMSO and spotted (1 μL each) on sterile polystyrene plates (Corning, 3788). Log phase bacterial suspensions were adjusted to a final density of 5×10^5 cfu/mL in cation-adjusted Mueller-Hinton broth (Becton-Dickinson) and added to each well (98 μL). Microplates were incubated for 16-20 h at 35° C. in ambient air. The MIC of the compounds was defined as the lowest concentration of said compounds that prevented bacterial growth as read by visual inspection. The MIC of ceftazidime at each compound concentration was defined as the lowest concentration of ceftazidime that prevented bacterial growth as read by visual inspection.

[9] = system: K. pneumoniae 6299 (TEM-1, SHV-11, OXA-163); experiment: as above; format: cell-based; conditions: strain 6299; MIC of CAZ with compound fixed at 4 μg/mL
Protocol: as §2, §3

[10] = system: K. pneumoniae BAA-1898 (TEM-1, SHV-11, SHV-12, KPC-2); experiment: as above; format: cell-based; conditions: strain BAA-1898; MIC of CAZ with compound fixed at 4 μg/mL
Protocol: as §2, §3

[11] = system: P. aeruginosa CIP107051 (TEM-24); experiment: as above; format: cell-based; conditions: strain CIP107051; MIC of CAZ with compound fixed at 4 μg/mL
Protocol: as §2, §3

[12] = system: E. coli 190317 (TEM-1, SHV-12, CTX-M-15, OXA-1); experiment: microbe, parasite or virus in culture; format: cell-based; conditions: strain 190317; MIC of CAZ with compound fixed at 4 μg/mL
Protocol: as §2, §3

AmpC (P99) = AmpC (P99) (Enterobacter cloacae, UniProt P05364); experiment: β-lactamase inhibitory activity, determination of IC50 (nitrocefin hydrolysis); conditions: read-out: IC50 β-lactamase AmpC (P99); class (C); nitrocefin 200 μM, 30 min pre-incubation
Sequence of AmpC (P99) (P05364 21-381): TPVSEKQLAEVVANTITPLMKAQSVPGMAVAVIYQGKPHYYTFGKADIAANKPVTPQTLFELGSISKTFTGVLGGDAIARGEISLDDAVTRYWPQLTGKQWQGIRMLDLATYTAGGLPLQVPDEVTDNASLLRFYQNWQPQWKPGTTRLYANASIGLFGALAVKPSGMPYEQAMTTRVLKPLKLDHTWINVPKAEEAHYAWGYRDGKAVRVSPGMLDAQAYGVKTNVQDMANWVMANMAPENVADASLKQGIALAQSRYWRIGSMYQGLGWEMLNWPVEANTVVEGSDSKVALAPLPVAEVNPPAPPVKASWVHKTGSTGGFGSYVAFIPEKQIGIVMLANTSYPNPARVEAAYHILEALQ

AmpC P. aeruginosa = AmpC P. aeruginosa (Pseudomonas aeruginosa, UniProt P24735); experiment: as above; conditions: read-out: IC50 β-lactamase AmpC (PAE); class (C); nitrocefin 200 μM, 30 min pre-incubation
Sequence of AmpC P. aeruginosa (P24735 27-397): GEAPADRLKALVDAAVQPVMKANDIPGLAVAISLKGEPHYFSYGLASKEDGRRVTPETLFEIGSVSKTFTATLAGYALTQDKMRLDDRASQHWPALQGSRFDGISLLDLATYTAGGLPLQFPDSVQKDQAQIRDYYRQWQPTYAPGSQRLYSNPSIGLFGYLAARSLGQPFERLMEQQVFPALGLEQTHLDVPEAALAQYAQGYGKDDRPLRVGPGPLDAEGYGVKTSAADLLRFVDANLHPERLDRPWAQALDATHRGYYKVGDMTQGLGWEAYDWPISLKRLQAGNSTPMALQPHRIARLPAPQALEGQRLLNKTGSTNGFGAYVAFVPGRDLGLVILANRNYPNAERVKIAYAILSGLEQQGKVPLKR

Compound `COC(=O)c1ncsc1C1=CCN2CC1N(OS(=O)(=O)[O-])C2=O.[Na+]` (centres unmarked) [Example 22, Sodium [4-(4-(2-methoxy-2-oxo-methyl)-thiazol-5-yl)-7-oxo-1,6-diazabicyclo[3.2.1]oct-3-en-6-yl] sulfate] has an IC50 (TEM-1) of 0.005 µM, an IC50 (SHV-1) of 0.019 µM and an IC50 (CTX-M-15) of 0.0065 µM. For the same compound, the IC50 (KPC-2) was 0.34 µM, the IC50 [1] was 0.084 µM and the IC50 (OXA-1) was 0.068 µM. The IC50 (OXA-11) was 0.37 µM, the IC50 (OXA-15) was 0.012 µM and the IC50 (OXA-48) was 0.0039 µM. The “MIC compounds of the invention alone” value (E. cloacae P99 (AmpC) [2]) was over 32 µg/mL, the “MIC compounds of the invention alone” value [3] was over 32 µg/mL and the “MIC compounds of the invention alone” value [4] was over 32 µg/mL. For the same compound, the “MIC compounds of the invention alone” value (E. coli RGN238 (OXA-1)) was over 32 µg/mL, the “MIC compounds of the invention alone” value [5] was over 32 µg/mL and the “MIC compounds of the invention alone” value [6] was over 32 µg/mL. The “MIC compounds of the invention alone” value [7] was over 32 µg/mL, the “MIC combination of CAZ and compounds of the invention at 4 μg/mL” value (shortened to “MIC combination”) (E. cloacae P99 (AmpC) [8]) was 128 µg/mL and the “MIC combination” value [9] was 128 µg/mL. For the same compound, the “MIC combination” value [10] was 128 µg/mL, the “MIC combination” value [11] was over 128 µg/mL and the “MIC combination” value [12] was 16 µg/mL. For the same compound, the IC50 (AmpC (P99)) was 0.16 µM and the IC50 (AmpC P. aeruginosa) was 5.5 µM.
